# Data: PubChem BioAssay AID330 (DTP/NCI, 2004)
# Several values for one entry are separate records, joined by “and”; a condition that tells them apart may be missing. Equal values may be shown once. Toxic doses and inconclusive results are not listed.
# Test system: P388 leukemia ip, CD2F1 mice, survival T/C
# Assay: NCI In Vivo Anticancer Drug Screen. Data for tumor model P388 Leukemia (intraperitoneal) in CD2F1 (CDF1) mice
# Conditions: endpoint: median survival time, higher = longer survival
# How it was run: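 Mice carrying the transplanted tumor received test compound or vehicle. Survival was recorded in each group, and the value is the treated-group measurement divided by that of the vehicle-treated control group.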
# [1] = dose: 25.0 mg/kg/injection, schedule: Q01DX009 (ip), vehicle: water
# [2] = dose: 50.0 mg/kg/injection, schedule: Q01DX009 (ip), vehicle: water
# [3] = dose: 50.0 mg/kg/injection, schedule: Q04DX002 (ip), vehicle: saline with Tween-80
# [4] = dose: 100.0 mg/kg/injection, schedule: Q04DX002 (ip), vehicle: saline with Tween-80
# [5] = dose: 200.0 mg/kg/injection, schedule: Q04DX002 (ip), vehicle: saline with Tween-80
# [6] = dose: 50.0 mg/kg/injection, schedule: Q01DX005 (ip), vehicle: Klucel (hydroxypropylcellulose) (HPC)
# [7] = dose: 100.0 mg/kg/injection, schedule: Q01DX005 (ip), vehicle: Klucel (hydroxypropylcellulose) (HPC)
# [8] = dose: 200.0 mg/kg/injection, schedule: Q01DX005 (ip), vehicle: Klucel (hydroxypropylcellulose) (HPC)
# [9] = dose: 60.0 mg/kg/injection, schedule: Q01DX005 (ip), vehicle: saline with Tween-80
# [10] = dose: 120.0 mg/kg/injection, schedule: Q01DX005 (ip), vehicle: saline with Tween-80
# [11] = dose: 240.0 mg/kg/injection, schedule: Q01DX005 (ip), vehicle: saline with Tween-80
# [12] = dose: 50.0 mg/kg/injection, schedule: Q01DX009 (ip), vehicle: saline with Tween-80
# [13] = dose: 100.0 mg/kg/injection, schedule: Q01DX009 (ip), vehicle: saline with Tween-80
# [14] = dose: 200.0 mg/kg/injection, schedule: Q01DX009 (ip), vehicle: saline with Tween-80
# [15] = dose: 400.0 mg/kg/injection, schedule: Q04DX002 (ip), vehicle: saline with Tween-80
# [16] = dose: 12.5 mg/kg/injection, schedule: Q01DX005 (ip), vehicle: saline with Tween-80
# [17] = dose: 25.0 mg/kg/injection, schedule: Q01DX005 (ip), vehicle: saline with Tween-80
# [18] = dose: 50.0 mg/kg/injection, schedule: Q01DX005 (ip), vehicle: saline with Tween-80
smiles,measurement,setting,value
COc1ccc(-[n+]2noc(N)n2)cc1,T/C,"dose: 3.13 mg/kg/injection, schedule: Q01DX009 (ip), vehicle: water",99 % of control
same,T/C,"dose: 6.25 mg/kg/injection, schedule: Q01DX009 (ip), vehicle: water",102 % of control
same,T/C,"dose: 12.5 mg/kg/injection, schedule: Q01DX009 (ip), vehicle: water",108 % of control
same,T/C,[1],116 % of control
same,T/C,[2],120 % of control
CC(=Nc1cc(Cl)ccc1O)C1=C(O)c2ccccc2C1=O,T/C,[3],94 % of control
same,T/C,[4],97 % of control
same,T/C,[5],97 % of control
COC(=O)/C(C#N)=C/c1ccc(NC(C)=O)cc1,T/C,[6],93 % of control
same,T/C,[7],94 % of control
same,T/C,[8],88 % of control
CCN(CC)CCSc1c2ccc(Cl)cc2nc2ccc(OC)cc12,T/C,"dose: 12.5 mg/kg/injection, schedule: Q01DX005 (ip), vehicle: saline",106 % of control
same,T/C,"dose: 25.0 mg/kg/injection, schedule: Q01DX005 (ip), vehicle: saline",106 % of control
same,T/C,"dose: 50.0 mg/kg/injection, schedule: Q01DX005 (ip), vehicle: saline",105 % of control and 106 % of control
COc1ccc2ccc3cccnc3c2n1,T/C,[9],93 % of control
same,T/C,[10],99 % of control
same,T/C,[11],105 % of control
Cc1cccn2c(CCCc3nnc4c(C)cccn34)nnc12,T/C,[12],100 % of control
same,T/C,[13],101 % of control
same,T/C,[14],101 % of control
CCN(CC(O)CN(CC1CO1)c1ccccc1)c1ccccc1 (centres undefined),T/C,[4],100 % of control
same,T/C,[5],94 % of control
same,T/C,[15],101 % of control
O=C1NC(=O)C2CCC12 (centres undefined),T/C,[12],100 % of control
same,T/C,[13],100 % of control
same,T/C,[14],100 % of control
C[C@@H]1C(=O)O[C@H]2[C@H]1CC[C@@]1(C)C=C(Cl)C(=O)[C@@H](C)[C@H]21,T/C,[3],100 % of control
same,T/C,[4],117 % of control
CC(=S)NC(O)C(=O)c1ccccc1 (centres undefined),T/C,[12],121 % of control
C[As](C)SC(CO)C1OC2OC(C)(C)OC2C1O (centres undefined),T/C,"dose: 50.0 mg/kg/injection, schedule: Q01DX009 (ip), vehicle: saline + alcohol",108 % of control
C[N+]1(C)CCCC(C(=O)c2ccccc2)C1 (centres undefined),T/C,"dose: 3.75 mg/kg/injection, schedule: Q01DX005 (ip), vehicle: saline",119 % of control
same,T/C,"dose: 7.5 mg/kg/injection, schedule: Q01DX005 (ip), vehicle: saline",108 % of control
same,T/C,"dose: 15.0 mg/kg/injection, schedule: Q01DX005 (ip), vehicle: saline",103 % of control
same,T/C,"dose: 30.0 mg/kg/injection, schedule: Q01DX005 (ip), vehicle: saline",100 % of control and 101 % of control
Cc1cc(=O)[nH]c2nc3ccccc3n12,T/C,[12],95 % of control
same,T/C,[13],96 % of control
same,T/C,[14],100 % of control
same,T/C,"dose: 400.0 mg/kg/injection, schedule: Q01DX009 (ip), vehicle: saline with Tween-80",104 % of control
Clc1ccc2nc(CBr)cnc2c1,T/C,"dose: 6.25 mg/kg/injection, schedule: Q01DX009 (ip), vehicle: saline with Tween-80",104 % of control
same,T/C,"dose: 12.5 mg/kg/injection, schedule: Q01DX009 (ip), vehicle: saline with Tween-80",104 % of control
same,T/C,"dose: 25.0 mg/kg/injection, schedule: Q01DX009 (ip), vehicle: saline with Tween-80",100 % of control
CC(=O)c1ccc2oc(C(C)=O)cc2c1,T/C,"dose: 2.5 mg/kg/injection, schedule: Q01DX009 (ip), vehicle: saline with Tween-80",97 % of control
same,T/C,"dose: 5.0 mg/kg/injection, schedule: Q01DX009 (ip), vehicle: saline with Tween-80",96 % of control
Cc1cc(N=Nc2ccc(-c3ccc(N=Nc4ccc(O)c(C(=O)O)c4)cc3)cc2)c(N)c(N=Nc2ccc(C(=O)Nc3ccc(S(=O)(=O)O)cc3)cc2)c1N,T/C,"dose: 6.25 mg/kg/injection, schedule: Q01DX005 (ip), vehicle: saline with Tween-80",100 % of control
same,T/C,[16],101 % of control
same,T/C,[17],101 % of control
COC(=O)C(=O)C(C#N)c1ccc([N+](=O)[O-])cc1 (centres undefined),T/C,[9],101 % of control
same,T/C,[10],93 % of control
same,T/C,[11],95 % of control
CCCN=Cc1cc(Cc2ccc(O)c(C=NCCC)c2)ccc1O,T/C,"dose: 50.0 mg/kg/injection, schedule: Q04DX003 (ip), vehicle: Klucel (hydroxypropylcellulose) (HPC)",123 % of control
same,T/C,"dose: 100.0 mg/kg/injection, schedule: Q04DX003 (ip), vehicle: Klucel (hydroxypropylcellulose) (HPC)",104 % of control and 119 % of control
CN=c1s[se]c2ccccc12,T/C,"dose: 12.5 mg/kg/injection, schedule: Q01DX009 (ip), vehicle: Klucel (hydroxypropylcellulose) (HPC)",102 % of control
same,T/C,"dose: 25.0 mg/kg/injection, schedule: Q01DX009 (ip), vehicle: Klucel (hydroxypropylcellulose) (HPC)",94 % of control
CCCSc1ccc2nc(NC(=O)OC)[nH]c2c1,T/C,[9],106 % of control and 111 % of control
same,T/C,[10],109 % of control and 112 % of control
same,T/C,"dose: 480.0 mg/kg/injection, schedule: Q01DX005 (ip), vehicle: saline with Tween-80",156 % of control
CNC(=O)Cc1ccc2cc(OC)c(OC)cc2c1,T/C,[12],90 % of control
same,T/C,[13],95 % of control
same,T/C,[14],90 % of control
O=C(NO)c1cccc2ccccc12,T/C,[6],106 % of control
same,T/C,[7],106 % of control
same,T/C,[8],113 % of control
C=CC1CCC[S+]1CC(=O)OCC (centres undefined),T/C,[16],100 % of control
same,T/C,[17],105 % of control
same,T/C,[18],102 % of control and 107 % of control
COC(=O)Cc1onc(-c2ccccc2)c1[N+](=O)[O-],T/C,[9],101 % of control
same,T/C,[10],101 % of control
same,T/C,[11],94 % of control
CCOC(=O)CN1CCC2CC1c1c([nH]c3ccccc13)C2c1cc2c(cc1OC)N(C)C1C(O)(C(=O)OC)C(OC(C)=O)C3(CC)C=CCN4CCC21C43 (centres undefined),T/C,"dose: 0.03 mg/kg/injection, schedule: Q04DX003 (ip), vehicle: saline with Tween-80",94 % of control
same,T/C,"dose: 0.06 mg/kg/injection, schedule: Q01DX009 (ip), vehicle: Klucel (hydroxypropylcellulose) (HPC)",94 % of control
same,T/C,"dose: 0.06 mg/kg/injection, schedule: Q04DX003 (ip), vehicle: saline with Tween-80",92 % of control
same,T/C,"dose: 0.13 mg/kg/injection, schedule: Q01DX009 (ip), vehicle: Klucel (hydroxypropylcellulose) (HPC)",93 % of control
same,T/C,"dose: 0.13 mg/kg/injection, schedule: Q04DX003 (ip), vehicle: saline with Tween-80",95 % of control
same,T/C,"dose: 0.25 mg/kg/injection, schedule: Q04DX003 (ip), vehicle: saline with Tween-80",98 % of control
same,T/C,"dose: 0.5 mg/kg/injection, schedule: Q04DX003 (ip), vehicle: saline with Tween-80",112 % of control
same,T/C,"dose: 1.0 mg/kg/injection, schedule: Q01DX009 (ip), vehicle: Klucel (hydroxypropylcellulose) (HPC)",90 % of control
same,T/C,"dose: 13.0 micrograms/kg/injection, schedule: Q01DX009 (ip), vehicle: Klucel (hydroxypropylcellulose) (HPC)",98 % of control
same,T/C,"dose: 25.0 micrograms/kg/injection, schedule: Q01DX009 (ip), vehicle: Klucel (hydroxypropylcellulose) (HPC)",103 % of control
same,T/C,"dose: 50.0 micrograms/kg/injection, schedule: Q01DX009 (ip), vehicle: Klucel (hydroxypropylcellulose) (HPC)",94 % of control
same,T/C,"dose: 100.0 micrograms/kg/injection, schedule: Q01DX009 (ip), vehicle: Klucel (hydroxypropylcellulose) (HPC)",100 % of control
same,T/C,"dose: 200.0 micrograms/kg/injection, schedule: Q01DX009 (ip), vehicle: Klucel (hydroxypropylcellulose) (HPC)",103 % of control
O=S1(=O)CC(c2ccccc2)(N2CCOCC2)C1,T/C,[12],94 % of control
same,T/C,[13],96 % of control
same,T/C,[14],105 % of control
CS(=O)CSCC(N)C(=O)O (centres undefined),T/C,[1],91 % of control
same,T/C,[2],100 % of control
same,T/C,"dose: 100.0 mg/kg/injection, schedule: Q01DX009 (ip), vehicle: water",93 % of control
same,T/C,"dose: 200.0 mg/kg/injection, schedule: Q01DX009 (ip), vehicle: water",99 % of control
same,T/C,"dose: 400.0 mg/kg/injection, schedule: Q01DX009 (ip), vehicle: water",96 % of control
COc1ccccc1N=NC1=C2Nc3ccccc3N=C1N(c1ccccc1OC)C(=S)N2c1ccccc1C,T/C,[18],102 % of control
same,T/C,"dose: 100.0 mg/kg/injection, schedule: Q01DX005 (ip), vehicle: saline with Tween-80",103 % of control
C=CC(=O)OC1CC(O)C2(C)CC3C(=C)C(=O)OC3CC(C)C12 (centres undefined),T/C,[4],107 % of control
same,T/C,[5],110 % of control
same,T/C,[15],109 % of control
